Data set [1] has as its system Respiratory Syncytial Virus. Kind of data set: microbe, parasite or virus in culture. The note with it: for EC50: human respiratory syncytial virus, 168 h. The format is cell-based. The source says: The percent protection against cytopathology caused by viruses (antiviral activity or EC50) achieved by tested compounds and their cytotoxicity (CC50) are both calculated from dose-response curves. The selectivity of the antiviral effect is represented by the selectivity index (SI), calculated by dividing the CC50 (cytotoxic dose for 50% of the cells) by the EC50 (antiviral activity for 50% of the cells).
Automated tetrazolium-based […] assays were used for determination of EC50 and CC50 of test compounds. Flat-bottom, 96-well plastic microtiter trays were filled with 180 μl of Eagle's Basal Medium, supplemented with 5% FCS (0% for FLU) and 20 mM Hepes buffer. Subsequently, stock solutions (7.8× final test concentration) of compounds were added in 45 μl volumes to a series of triplicate wells so as to allow simultaneous evaluation of their effects on virus- and mock-infected cells. Five five-fold dilutions were made directly in the microtiter trays using a robot system. Untreated virus controls, and HeLa cell controls were included in each test. Approximately 100 TCID50 of Respiratory Syncytial Virus was added to two of the three rows in a volume of 50 μl. The same volume of medium was added to the third row to measure the cytotoxicity of the compounds at the same concentrations as those used to measure the antiviral activity. After two hours of incubation, a suspension (4×10^5 cells/ml) of HeLa cells was added to all wells in a volume of 50 μl. The cultures were incubated at 37° C. in a 5% CO2 atmosphere. Seven days after infection the cytotoxicity and the antiviral activity was examined spectrophotometrically. To each well of the microtiter tray, 25 μl of a solution of MTT (3-(4,5-dimethylthiazol-2-yl)-2,5-diphenyltetrazolium bromide) was added. The trays were further incubated at 37° C. for 2 hours, after which the medium was removed from each cup. Solubilization of the formazan crystals was achieved by adding 100 μl 2-propanol. Complete dissolution of the formazan crystals were obtained after the trays have been placed on a plate shaker for 10 min. Finally, the absorbances were read in an eight-channel computer-controlled photometer (Multiskan MCC, Flow Laboratories) at two wavelengths (540 and 690 nm). The absorbance measured at 690 nm was automatically subtracted from the absorbance at 540 nm, so as to eliminate the effects of non-specific absorption.

The mark [2] stands for this setting: Table 1, pEC50 (−log of EC50 in molar units), RSV-infected HeLa cells, MTT read-out seven days after infection, read-out: Activity (converted).
Setting [3] is: Table 3, pEC50 (−log of EC50 in molar units), RSV-infected HeLa cells, MTT read-out seven days after infection, read-out: Activity (converted).

Like-named read-outs stand apart in the source and are kept apart here.

As usually defined, the melting point is the temperature of the solid-liquid transition. For `Cc1cc(C)c2nc(NC3CCN(CCC(N)=O)CC3)n(Cc3nc(C)ccc3O)c2c1`, the melting point is 212 °C.

With “6-methyl-2-[4-methyl-2-(1-methyl-piperidin-4-ylamino)-benzoimidazol-1-ylmethyl]-pyridin-3-ol [Compound 34]”, the Activity in data set [1] (Table 3, pEC50 (−log of EC50 in molar units), RSV-infected HeLa cells, MTT read-out seven days after infection) turned out to be 6.8. In turn, `Cc1cc(C)c2nc(NC3CCN(CCCS(N)(=O)=O)CC3)n(Cc3nc(C)ccc3O)c2c1` [Compound 1, 3-{4-[1-(3-hydroxy-6-methyl-pyridin-2-ylmethyl)-4,6-dimethyl-1H-benzoimidazol-2-ylamino]-piperidin-1-yl}-propane-1-sulfonic acid amide] displayed a melting point of 180 °C. In addition, in data set [1] (setting [2]), the EC50 is 0.002 µM.

On to `Cc1cc(C)c2nc(NC3CCN(CCO)CC3)n(Cc3nc(C)ccc3O)c2c1` [Compound 2, 2-{2-[1-(2-hydroxy-ethyl)-piperidin-4-ylamino]-4,6-dimethyl-benzoimidazol-1-ylmethyl}-6-methyl-pyridin-3-ol], for which the melting point is 177 °C. Besides, in data set [1] (setting [2]), the EC50 is 0.00316 µM. The molecule `Cc1cc(C)c2nc(NC3CCN(CCCO)CC3)n(Cc3nc(C)ccc3O)c2c1` [Compound 4, 2-{2-[1-(3-hydroxy-propyl)-piperidin-4-ylamino]-4,6-dimethyl-benzoimidazol-1-ylmethyl}-6-methyl-pyridin-3-ol] gave a melting point of 209 °C. In addition, the EC50 in data set [1] (setting [2]) was 0.00794 µM. The like results for `CCOC(=O)CCN1CCC(Nc2nc3c(C)cc(C)cc3n2Cc2nc(C)ccc2O)CC1` [Compound 10, 3-{4-[1-(3-Hydroxy-6-methyl-pyridin-2-ylmethyl)-4,6-dimethyl-1H-benzoimidazol-2-ylamino]-piperidin-1-yl}-propionic acid ethyl ester] were, in that order, 172 °C and 0.0794 µM. `Cc1cc(C)c2c(c1)nc(NC1CCN(CCO)CC1)n2Cc1nc(C)ccc1O` [Compound 15, 2-{2-[1-(2-hydroxy-ethyl)-piperidin-4-ylamino]-5,7-dimethyl-benzoimidazol-1-ylmethyl}-6-methyl-pyridin-3-ol] had a melting point of 143 °C. In addition, the EC50 in data set [1] (Table 2, pEC50 (−log of EC50 in molar units), RSV-infected HeLa cells, MTT read-out seven days after infection, read-out: Activity (converted)) is 0.398 µM. With `Cc1ccc(O)c(Cn2c(NC3CCN(CCN4CCCC4)CC3)nc3c(C)cccc32)n1` [Compound 18, 6-Methyl-2-{4-methyl-2-[1-(2-pyrrolidin-1-yl-ethyl)-piperidin-4-ylamino]-benzoimidazol-1-ylmethyl}-pyridin-3-ol], the melting point stood at 225 °C. The EC50 in data set [1] (setting [3]) is 0.01 µM. `Cc1ccc(O)c(Cn2c(NC3CCN(CCCS(N)(=O)=O)CC3)nc3c(C)cccc32)n1` [Compound 19, 3-{4-[1-(3-hydroxy-6-methyl-pyridin-2-ylmethyl)-4-methyl-1H-benzoimidazol-2-ylamino]-piperidin-1-yl}-propane-1-sulfonic acid amide] yielded a melting point of 250 °C. Also, the EC50 in data set [1] (setting [3]) was 0.0126 µM. `Cc1ccc(O)c(Cn2c(NC3CCN(CCOC(=O)Cc4ccccc4)CC3)nc3c(C)cccc32)n1` [Compound 24, Phenyl-acetic acid 2-{4-[1-(3-hydroxy-6-methyl-pyridin-2-ylmethyl)-4-methyl-1H-benzoimidazol-2-ylamino]-piperidin-1-yl}-ethyl ester] came in with a melting point of 207 °C. In addition, the EC50 in data set [1] (HeLa, read-out: Activity) is 0.0316 µM. For the molecule `Cc1ccc(O)c(Cn2c(NC3CCN(CCC(N)=O)CC3)nc3c(C)cccc32)n1` [Compound 27, 3-{4-[1-(3-Hydroxy-6-methyl-pyridin-2-ylmethyl)-4-methyl-1H-benzoimidazol-2-ylamino]-piperidin-1-yl}-propionamide], the melting point amounted to 258 °C. In addition, in data set [1] (setting [3]), the EC50 was 0.0501 µM. In the same order, the values of `CCOC(=O)CCN1CCC(Nc2nc3c(C)cccc3n2Cc2nc(C)ccc2O)CC1` [Compound 32, 3-{4-[1-(3-Hydroxy-6-methyl-pyridin-2-ylmethyl)-4-methyl-1H-benzoimidazol-2-ylamino]-piperidin-1-yl}-propionic acid ethyl ester] are 226 °C and 0.158 µM. In the same order, the values of `Cc1ccc(O)c(Cn2c(NC3CCN(CCC(=O)O)CC3)nc3c(C)cccc32)n1.Cl` [Compound 33, 3-{4-[1-(3-hydroxy-6-methyl-pyridin-2-ylmethyl)-4-methyl-1H-benzoimidazol-2-ylamino]-piperidin-1-yl}-propionic acid hydrochloride salt] are 245 °C and 0.158 µM.

Regarding `Cc1ccc(O)c(Cn2c(NC3CCN(CC(O)C(C)C)CC3)nc3c(C)cccc32)n1` (stereo not drawn) [Compound 35, 2-{2-[1-(2-hydroxy-3-methyl-butyl)-piperidin-4-ylamino]-4-methyl-benzoimidazol-1-ylmethyl}-6-methyl-pyridin-3-ol], the melting point was 230 °C. The EC50 in data set [1] (setting [3]) was 0.158 µM. In the same order, the values of `Cc1ccc(O)c(Cn2c(NC3CCN(CCOC(N)=O)CC3)nc3c(C)cccc32)n1` [Compound 37, Carbamic acid 2-{4-[1-(3-hydroxy-6-methyl-pyridin-2-ylmethyl)-4-methyl-1H-benzoimidazol-2-ylamino]-piperidin-1-yl}-ethyl ester] are 222 °C and 0.158 µM. Turning to `COc1ccc(OCC(O)CN2CCC(Nc3nc4c(C)cccc4n3Cc3nc(C)ccc3O)CC2)cc1` (stereo not drawn) [Compound 41, 2-(2-{1-[2-hydroxy-3-(4-methoxy-phenoxy)-propyl]-piperidin-4-ylamino}-4-methyl-benzoimidazol-1-ylmethyl)-6-methyl-pyridin-3-ol], the melting point is 227 °C. Also, in data set [1] (setting [3]), the EC50 was 0.316 µM.

Source of the values: US7355051B2, “Piperdine-amino-benzimidazole derivatives as inhibitors of respiratory syncytial virus replication” (Tibotec Pharmaceuticals, priority 2003, dated 2008).
